# Test results: US5817641A, “Treatment of enterotoxigenic diarrhea with 2-substituted adenosine derivatives” (priority 1997, dated 1998)
# Key:
# [1] = target: T1, guanylyl cyclase C (GC-C) (Rattus norvegicus, UniProt P23897); test: biochemical; type: biochemical; settings: for maximum inhibition of guanylyl cyclase: with or without ST; for inhibition at 1000 µM: read-out: decrease of Vmax of guanylyl cyclase; for guanylyl cyclase activation by peptide: 10 μM peptide, presence or absence of 1 mM ATP
# T1 construct: The mucosal layer was scraped from the intestine and homogenized; from tissue; host or cells: small intestinal mucosa of Sprague-Dawley rats (100,000×g washed membrane pellet)
# Protocol: (§1) Membranes were prepared from rat intestinal mucosa cells as described previously (Gazzano et al., (1991) Infect. Immun., 59, 1552-1557, which is incorporated herein by reference). Briefly, Sprague-Dawley rats were sacrificed, small intestine removed and rinsed in ice-cold 0.9% NaCl. All procedures were conducted at 4° C. The mucosal layer was scraped from the intestine and homogenized in 50 mM Tris-HCl (pH 7.6) containing 1 mM dithiothreitol, 1 mM EDTA and 1 mM phenylmethylsulfonyl fluoride, (TED) supplemented with 0.25M sucrose (TEDS). Homogenates were centrifuged at 100,000×g for 60 minutes and the resulting pellet was sequentially washed in (i) TED supplemented with 0.5M KCl, (ii) TED:TEDS (1:1) and (iii) TED. The final pellet was homogenized in TED at a protein concentration of 5-10 mg/mL and aliquots were stored at -70° C.
# Guanylyl cyclase activity was assayed as described previously (Waldman et al., (1984) J. Infect. Dis., 149, 83-89, which is incorporated herein by reference). Membranes were incubated at 37° C. in a final volume of 100 μl in the presence of 50 mM Tris-HCl (pH 7.6) containing 10 mM theophylline, 7.5 mM creatine phosphate/[…] creatine phosphokinase (160 U/mg of protein), GTP, manganese or magnesium cofactor (2 mM in excess of nucleotide) and ST and/or adenine nucleotide where indicated. Reactions were initiated by addition of membrane, incubated 5 minutes and terminated by adding 400 μl of 50 mM sodium acetate (pH 4.0) and boiling for 5 minutes. Following acetylation, samples were diluted with 50 mM NaAc containing 20 mM CaCl2. Generated cGMP was quantified by radioimmunoassay as described previously (Waldman et al., (1984) J. Infect. Dis., 149, 83-89). Radioimmunoassays were performed in triplicate, enzyme reactions were performed in duplicate, and results are representative of at least 3 experiments. Enzyme activity was linear with respect to protein concentration and time for all experiments.
# Protein concentration was measured by the method of Bradford (Bio-Rad) using bovine serum albumin as standard (Bradford, M. M., (1976) Anal. Biochem., 72, 248-254). All assays were performed in duplicate and data are representative of at least 3 experiments. Values reported for the S0.5 and Vmax are equivalent to the concentration of substrate yielding half-maximum guanylyl cyclase activity and the maximum velocity of the enzyme activity, respectively. All nucleotides were obtained from Sigma, except 2-chloroadenosine 5'-triphosphate (2ClATP) which were from Research Biochemicals Incorporated (Natick, Mass.).
# ST receptor (GC-C) = test: ST receptor binding assay ([125I]-ST) in rat intestinal membranes; settings: 1 mM nucleotide, presence or absence of GTP and magnesium
# Protocol: as §1, with “Homogenates were centrifuged at 100,000×g for 60 minutes and the resulting pellet was sequentially washed in (i) TED supplemented with 0.5M KCl, (ii) TED:TEDS (1:1) and (iii) TED. The final pellet was homogenized in TED at a protein concentration of 5-10 mg/mL and aliquots were stored at -70° C.” left out
# ST binding was quantified as described previously (Hugues et al., (1991) Biochemistry, 30, 10738-10745, which is incorporated herein by reference). […] Parallel incubations contained excess (10^-6 M) unlabeled ST to quantify non-specific binding. Reaction mixtures were incubated for 40 minutes at 37° C. and bound [^125 I]-ST was separated from free ligand by vacuum filtration through Whatman (GF/B glass fiber filters pretreated with 0.3% polyethyleneimine. Filters were washed with 10 ml of 20 mM phosphate-buffered saline (pH 7.2) containing 1 mM EDTA. Radioactivity which remained on the filter was quantified in a Packard γ-counter. Specific binding was determined by subtracting non-specific binding from the total [^125 I]-ST bound in the absence of unlabeled ligand. Non-specific binding was routinely less than 20% of total binding.
# [2] = system: GC-C in membranes from T84 and Caco 2 cells; test: Guanylyl cyclase activity in membranes prepared from T84 and Caco 2 cells; type: biochemical
# Text: Guanylyl cyclase C undergoes post-translations processing yielding multiple ST-binding proteins detected in crosslinking studies utilizing ^125 I-ST or by Western blot analysis (Vaandrager et al., (1993) J. Biol. Chem., 268, 2174-2179; Vaandrager et al., (1993) J. Biol. Chem., 268, 19598-19603; Ivens et al., (1990) Infect. Immun., 58, 1817-1820; de Sauvage et al., (1993) J. Biol. Chem., 267, 6479-6482; Cohen et al., (1993) J. Cell. Physiol., 156, 138-144). Post-translational processing of GC-C appears to reflect heterogenicity of glycosylation and proteolysis. Processing has been observed in membranes examined from intestinal mucosal cells, intestinal cells grown in vitro, and mammalian cells expressing cloned rat or human GC-C. Thus, the shift in apparent cooperativity with associated changes in Hill coefficients induced by 2-substituted adenine nucleotides could reflect differences in their effects on different populations of GC-C in intestinal membranes. Guanylyl cyclase C is the predominant, […], member of the particulate guanylyl cyclase family expressed by T84 and Caco 2 cells in vitro (Vaandrager et al., (1992) Gastroenterology, 102, 1161-1169). […]
# P2y purinergic receptors = settings: cited from earlier work
# [3] = magnesium cofactor, basal and ST (1 μM)-activated
# [4] = manganese cofactor (1.6 without nucleotide)
# T1 sequence (P23897 23-1072): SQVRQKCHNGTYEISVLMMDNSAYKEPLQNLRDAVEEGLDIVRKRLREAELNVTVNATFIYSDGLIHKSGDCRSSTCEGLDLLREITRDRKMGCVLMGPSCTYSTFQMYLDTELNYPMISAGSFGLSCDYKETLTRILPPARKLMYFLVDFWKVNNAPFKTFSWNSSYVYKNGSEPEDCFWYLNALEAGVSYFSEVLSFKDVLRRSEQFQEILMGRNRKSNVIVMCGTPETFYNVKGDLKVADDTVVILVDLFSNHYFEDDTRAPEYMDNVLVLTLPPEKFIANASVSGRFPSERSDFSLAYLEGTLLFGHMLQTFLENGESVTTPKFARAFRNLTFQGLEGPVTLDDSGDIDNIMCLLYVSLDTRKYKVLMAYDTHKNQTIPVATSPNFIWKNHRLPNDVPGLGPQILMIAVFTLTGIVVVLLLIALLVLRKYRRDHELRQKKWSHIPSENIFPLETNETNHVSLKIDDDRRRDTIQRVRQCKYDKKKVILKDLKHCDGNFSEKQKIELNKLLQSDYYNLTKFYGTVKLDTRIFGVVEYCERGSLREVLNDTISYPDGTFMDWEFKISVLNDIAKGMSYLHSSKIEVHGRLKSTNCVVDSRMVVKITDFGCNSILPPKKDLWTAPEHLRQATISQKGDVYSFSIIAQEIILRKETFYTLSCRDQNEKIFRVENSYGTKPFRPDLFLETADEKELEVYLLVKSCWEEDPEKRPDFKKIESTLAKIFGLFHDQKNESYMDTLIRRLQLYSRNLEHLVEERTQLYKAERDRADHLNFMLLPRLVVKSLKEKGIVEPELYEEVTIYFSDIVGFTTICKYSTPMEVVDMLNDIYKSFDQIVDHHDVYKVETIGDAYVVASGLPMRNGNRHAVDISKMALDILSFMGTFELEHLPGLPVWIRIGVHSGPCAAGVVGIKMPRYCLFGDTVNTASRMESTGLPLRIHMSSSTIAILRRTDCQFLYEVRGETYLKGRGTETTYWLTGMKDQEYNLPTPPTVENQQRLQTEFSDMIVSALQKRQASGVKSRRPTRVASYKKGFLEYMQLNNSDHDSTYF
compound,measurement,setting,value
"Nc1nc(Cl)nc2c1ncn2[C@@H]1O[C@H](COP(=O)(O)OP(=O)(O)OP(=O)(O)O)[C@@H](O)[C@H]1O [2ClATP, 2-chloroadenosine 5'-triphosphate]",Ki,[1]; Ki (concentration yielding half-maximum inhibition),300 µM
same,guanylyl cyclase activity inhibited,[1]; in the presence of maximally activating concentrations of AMPS,> 95%
same,Ki values in the presence or absence of ST,[1]; magnesium cofactor,not significantly different
same,effect on guanylyl cyclase activity,[1]; [3],inhibited guanylyl cyclase activity
same,maximum inhibition of guanylyl cyclase,[1]; magnesium cofactor,> 95%
same,effect on guanylyl cyclase activity,[1]; manganese cofactor,inhibited guanylyl cyclase in a concentration-dependent fashion
same,guanylyl cyclase activity inhibited,[1]; manganese cofactor,> 95%
same,Ki when AMPS is incorporated in enzyme incubations,[1]; with maximally activating AMPS (3 mM),unchanged
same,specific binding of [125I]-ST to intestinal membranes,ST receptor (GC-C),unchanged
Nc1nc(Cl)nc2c1ncn2[C@@H]1O[C@H](CO)[C@@H](O)[C@H]1O [2ClAdo],effect on guanylyl cyclase activity,[1]; manganese cofactor,did not significantly inhibit guanylyl cyclase
CSc1nc(N)c2ncn([C@@H]3O[C@H](COP(=O)(O)OP(=O)(O)OP(=O)(O)O)[C@@H](O)[C@H]3O)c2n1 [2MeSATP],effect on cooperativity of GC-C,[2],shift from positive to negative cooperativity
same,inhibition of GC-C,[2],potently inhibited GC-C
same,Ki,"[1]; Ki for inhibition of guanylyl cyclase, 20 μM GTP",390 ± 260 µM
same,Ki,"[1]; Ki for inhibition of guanylyl cyclase, 1000 μM GTP",280 ± 180 µM
same,Ki values in the presence or absence of ST,[1]; magnesium cofactor,not significantly different
same,Hill coefficient of guanylyl cyclase in the presence of nucleotide,"[1]; magnesium cofactor, 1 mM nucleotide, presence and absence of ST",about 1.0
same,effect on guanylyl cyclase activity,[1]; [3],inhibited guanylyl cyclase activity
same,maximum inhibition of guanylyl cyclase,[1]; magnesium cofactor,> 95%
same,effect on Vmax and S0.5,"[1]; magnesium cofactor, nucleotide 1 mM, presence or absence of ST",lowered the Vmax without significantly changing the S0.5
same,effect on guanylyl cyclase activity,[1]; manganese cofactor,inhibited guanylyl cyclase in a concentration-dependent fashion
same,guanylyl cyclase activity inhibited,[1]; manganese cofactor,> 95%
same,Hill coefficient of guanylyl cyclase in the presence of nucleotide,[1]; [4],0.7
same,effect on S0.5,"[1]; manganese cofactor, 1 mM nucleotide",only a small effect on the S0.5
same,inhibition at 1000 µM,[1],> 90%
"Nc1ncnc2c1ncn2[C@@H]1O[C@H](COP(=O)(O)OP(O)(O)=S)[C@@H](O)[C@H]1O [ADPβS, adenosine 5'-O-(2-thiodiphosphate), reference compound]",ligand potency for P2y receptors,P2y purinergic receptors,potent ligand for P2y receptors
"Nc1ncnc2c1ncn2[C@@H]1O[C@H](COP(=O)(O)CP(=O)(O)OP(=O)(O)O)[C@@H](O)[C@H]1O [AMPCPP, α,β-methylene adenosine 5'-triphosphate, reference compound]",ligand potency for P2y receptors,P2y purinergic receptors,poor ligand for P2y receptors
"Nc1ncnc2c1ncn2[C@@H]1O[C@H](COP(O)(O)=S)[C@@H](O)[C@H]1O [AMPS, adenosine 5'-O-thiomonophosphate, reference compound]",effect on guanylyl cyclase activity,[1]; [3],potentiated guanylyl cyclase activation by ST in a concentration-dependent fashion
same,effect on guanylyl cyclase activity,[1]; manganese cofactor,did not significantly inhibit guanylyl cyclase
same,Ka to potentiate ST-activation of guanylyl cyclase when 2ClATP is incorporated,[1]; with 2ClATP at 0.3 mM,unchanged
"Nc1ncnc2c1ncn2[C@@H]1O[C@H](COP(=O)(O)OP(=O)(O)OP(=O)(O)O)[C@@H](O)[C@H]1O [ATP, reference compound]",effect on guanylyl cyclase activity,[1]; [3],activated guanylyl cyclase in a concentration-dependent manner but with a lower efficacy than ATPγS
same,effect on guanylyl cyclase activity,[1]; manganese cofactor,inhibited guanylyl cyclase in a concentration-dependent fashion
same,Hill coefficient of guanylyl cyclase in the presence of nucleotide,[1]; [4],less than 1.0
same,S0.5 of guanylyl cyclase in the presence of nucleotide,"[1]; manganese cofactor, 1 mM nucleotide (0.08 mM without)",0.25 mM
same,concentration at which the nucleotide inhibits guanylyl cyclase activity (biphasic dose-response),[1]; rat intestinal membranes,above 1 mM
same,inhibition at 1000 µM,[1],80%
"Nc1ncnc2c1ncn2[C@@H]1O[C@H](CO[P@](=O)(O)O[P@](=O)(O)O[P@@](=O)(O)S)[C@@H](O)[C@H]1O [ATPγS, adenosine 5'-O-(3-thiotriphosphate), reference compound]",maximal activation of guanylyl cyclase,"[1]; magnesium cofactor, in the presence of ST (1 μM)",2- to 3 fold
same,effect on guanylyl cyclase activity,[1]; manganese cofactor,inhibited guanylyl cyclase in a concentration-dependent fashion
"ANP: atrial natriuretic peptides, ligand of GC-A [reference compound]",guanylyl cyclase activation by peptide,[1],did not exhibit guanylyl cyclase activation
"CNP: C-type natriuretic peptide, ligand of GC-B [reference compound]",guanylyl cyclase activation by peptide,[1],did not exhibit guanylyl cyclase activation
